Legend:
[1] = tested on: mTOR phosphorylated at Ser2448; test: Muscle protein synthesis (Phospho-mTOR assay); format: cell-based; details: HSkMC cells, 2 hours, FIG. 9
Procedure: Phospho-mTOR sandwich ELISA detects endogenous levels of phosphorylated mTOR at Ser2448.
Day 1: Seed HSkMC cells in 500 uL/well of HSkMC Growth Medium and let them adhere to the wells for 16-24 h.
Day 2: Remove growth medium and add 500 uL/well of HSkMC Differentiation Medium to let them differentiate for 5-7 days.
Day 7: Treat cells for 2 hours. Collect cell lysates in lysis buffer.
Day 8: Perform BCA (protein determination) and run the assay. In a first incubation step, a mTOR antibody coated onto the ELISA microwells is used to capture mTOR (phospho and non-phospho) from the cell lysates. Then, following extensive washing, a specific phospho-mTOR detection antibody is added to detect only the phospho-mTOR protein captured before. Finally, a HRP-linked antibody is used to recognise the detection antibody and through the addition of TMB (HRP substrate) develop color proportionally to the quantity of mTOR phosphorylated at Ser2448.

[2] = tested on: Human Dermal Fibroblasts (HDF); test: Collagen production assay (hydroxyproline ELISA); format: cell-based; details: 5, 1 or 0.1 μg/ml, 96 h, compared with untreated control, FIG. 3
Procedure: Study Description Hydroxyproline in tissue preparations is a direct measure of the amount of collagen present. […] Human Hydroxyproline ELISA kit assay is designed to measure hydroxyproline in tissue or peptide compositions.
Human Dermal Fibroblasts (HDF Sigma 10605a) were seeded in 24 well plates at 50,000 cells per well in DMEM containing 10% fetal calf serum (FCS), 1% Pen/strep, 1% L-glutamine and allowed to adhere for 24 h.
Following the initial 24 h incubation the cells were incubated with 5 μg/ml, 1 μg/ml or 0.1 μg/ml synthetic peptide for 96 h respectively.
After treatment, the cell supernatant was removed and centrifuged. 50 μl of each supernatant was assayed using the […] Human Hydroxyproline ELISA kit. All steps were carried out according to the manufacturer's instructions.

AMPK pathway = test: Phospho-AMPK alpha / Phospho-ACC / Phospho-Akt1 ELISA (mechanism of action); format: cell-based; details: phospho-ELISAs on cell lysates; FIGS. 12-14
Procedure: This set of experiments was undertaken to understand the mechanism of action of a peptide of SEQ ID NO. 1.
Phospho-Acetyl-CoA Carboxylase (Ser79) Sandwich ELISA Kit is a solid phase sandwich enzyme-linked immunosorbent assay (ELISA) that detects endogenous levels of acetyl-CoA carboxylase (ACC) when phosphorylated at Ser79. A phospho-ACC (Ser79) rabbit antibody was coated onto the microwells. After incubation with cell lysates, phospho-ACC protein was captured by the coated antibody. Following extensive washing, an ACC mouse detection mAb was added to detect the captured ACC protein. Anti-mouse IgG, HRP-linked antibody was then used to recognize the bound detection antibody. […] The magnitude of the absorbance for the developed color was proportional to the quantity of ACC phosphorylated at Ser79.
Phospho-Akt1 (Ser473) Sandwich ELISA Kit is a solid phase sandwich enzyme-linked immunosorbent assay (ELISA) that detects endogenous levels of phospho-Akt1 (Ser473) protein. […] The magnitude of absorbance for this developed colour is proportional to the quantity of phospho-Akt1 (Ser473) protein.
Phospho-AMPKα (Thr172) Sandwich ELISA Kit is a solid phase sandwich enzyme-linked immunosorbent assay (ELISA) that detects endogenous levels of AMPKα when phosphorylated at Thr172. […] The magnitude of the absorbance for this developed colour was proportional to the quantity of AMPKα phosphorylated at Thr172. […]

KK.Cg-Ay/J (KKAY mouse) = test: Blood glucose management in a mouse model of obesity and diabetes; format: in vivo; details: KKAY mice; 100 μM/kg subcutaneous injection; after 7 days of treatment
Procedure: • Species—KK.Cg-Ay/J (KKAY mouse) • Source—Jackson Laboratories • Age—12 weeks of age • Gender—Male • Randomization—Based on baseline fasting glucose Housing and Feeding: • Acclimation—Not less than five days • Housing • Mice will be housed on a 12 hr light/dark cycle • No more than 4 mice per cage depending on size • Ventilated cage rack system • Diet—Standard rodent chow and water ad libitum Design: • Route of administration:—Subcutaneous injection • Dose Volume(s)—10 mL/kg • Dose Levels—Test articles: 100 μM/kg, Metformin: 250 mg/kg • Number per group—10 • Total number of animals—30

[3] = tested on: Human Dermal Fibroblasts (HDF); test: Cell proliferation assay (BrDu), HDF; format: cell-based; details: HDF cells; 5, 0.5 or 0.05 μg/ml, 24 h; compared with untreated control; FIG. 1
Procedure: BrDu is incorporated into newly synthesised DNA strands of actively proliferating cells. Following partial denaturation of double stranded DNA, BrDu is detected immunochemically allowing the assessment of the population of cells which are synthesizing DNA.
Human Dermal Fibroblasts (HDF—Sigma 10605a) were seeded in a 96 well plate at 10,000 cells per well in DMEM containing 10% fetal calf serum (FCS), 1% Pen/strep, 1% L-glutamine and allowed to adhere for 24 h.
Following the initial 24 h incubation the cells were incubated with 5 μg/ml, 0.5 μg/ml or 0.05 μg/ml synthetic peptide for 24 h respectively.
After 18 h incubation with synthetic peptides 20 μl BrDu reagent was added to each well. At 24 h incubation the cells were fixed and the amount of […] was measured using the BrdU Cell Proliferation Assay, all steps were carried out according to the manufacturer's instructions.

## WKDEAGKPLVK [SEQ ID NO. 1]
[1]; 0.5 μg/ml
  mTOR: increase
[1]; 5 μg/ml
  mTOR: increase
[2]
  collagen production: increase
AMPK pathway
  mechanism of action (pathway): working through the AMPK pathway
KK.Cg-Ay/J (KKAY mouse)
  blood glucose: significantly reduced
[3]
  cell proliferation: increase

Source: patent US10729636B2, “Compositions comprising peptide [sequence]” (NURITAS LIMITED, priority 2016, dated 2020)
